Laboratory results published in patent US20230257385A1, “SALT AND SOLID FORMS OF TABERNANTHALOG” (priority 2021, published 2023).
Counter-ions that a name gives are not always drawn.

Legend:
[1] = Stability of sorbate salt at 95% RH (KNO3) at 20° C. (Example 10, Experiment 10); type: physicochemical; conditions: XRPD
Protocol: The samples were maintained under equilibrium humidity of 95% RH at 20° C. and monitored at 5 day by XRPD and 10 day time points by ^1H NMR, XRPD, DSC, TGA and PLM.
Experiment 10-Sample A was open-capped, and Experiment 10-Sample B was open-capped inside double, cable-tied, electrostatic polythene bags (to mimic a typical packaging configuration) and both were placed inside the same humidity chamber at 95% RH at 20° C. The powders were finely divided and distributed evenly over the base of the vial, such that equal material coverage across the panel was observed. The samples were sub-sampled at intervals of t=0, 5 d and 10 d and analysed by XRPD, DSC, TGA and ^1H NMR, for evidence of phase change or chemical degradation

[2] = DVS analyses of sorbate salt Form A / Form C (Example 10); type: physicochemical
From the text: DVS analyses of Form A (Performed on batch reference: Experiment 11-Sample -A1) To determine whether Form A underwent form change at high % RH, DVS residues of Form A, from 0 to 80% RH and 0 to 90% RH, were examined. The specimens were equilibrated to constant mass, at 80% and 90% RH set-points, removed, placed in a capped vial, and analysed by XRPD and DSC. Based on the SC-XRD at 100 K, no regular voids in the crystal structure were large enough to accommodate non-crystal-bonded, molecular water with minimum probe radius of 1.4 Å.
The moisture sorption properties of the feed API were analysed by DVS Intrinsic instrument (Surface Measurement System). Approximately 20 to 50 mg of API was weighed onto an aluminium pan and loaded into the instrument equilibrated at 25° C. The sample was equilibrated under a dry atmosphere (0% relative humidity) for 60 minutes, before increasing the humidity from 0% to 30% at 5% step increment and from 30% to 90% at 10% step increment. A desorption cycle was also applied from 90% to 30% (10% step decrement) and from 30% to 0% (5% step decrement). A rate of change in mass per time unit (dm/dt) of 0.002%/min was set as the equilibrium parameter. Kinetic and isotherm graphs were calculated.
5. DVS Analyses: 0% to 90% DVS Mass Per Unit Time Equilibrated at Dm/Dt (0.0002%/Min)

[3] = listed as Tabernanthalog sorbate salt (Form A)

## COc1ccc2c3c([nH]c2c1)CCN(C)CC3 [tabernanthalog sorbate salt]
[1]
  form change on storage, double-bagged (closed) vial: At t=10 d, Form A converted to Pattern #2
  form change on storage, open vial: At t=5 d, Form A converted to Pattern #2
[1]; [3]
  form change on storage, double-bagged (closed) vial: after 10 days
  form change on storage, open vial: converted to Form C (Pattern #2) after 5 days
[2]; 0% to 90% DVS, mass per unit time equilibrated at dm/dt (0.0002%/min)
  DVS isotherm: slightly hygroscopic up to 80% RH
[2]; RH 0.0, falling leg (90 to 0)
  DVS 0 to 90 to 0% RH (dm/dt <0.002%): 0.0 (0.06%)
[2]; RH 0.0, rising leg (0 to 90)
  DVS 0 to 90 to 0% RH (dm/dt <0.002%): DVS 0 to 90 to 0% RH (dm/dt <0.002%): 0.0 (0.00%),
[2]; RH 5.0, falling leg (90 to 0)
  DVS 0 to 90 to 0% RH (dm/dt <0.002%): 0.05%
[2]; RH 5.0, rising leg (0 to 90)
  DVS 0 to 90 to 0% RH (dm/dt <0.002%): 0.0%
[2]; RH 10.0, falling leg (90 to 0)
  DVS 0 to 90 to 0% RH (dm/dt <0.002%): 0.04%
[2]; RH 10.0, rising leg (0 to 90)
  DVS 0 to 90 to 0% RH (dm/dt <0.002%): 0.01%
[2]; RH 15.0, falling leg (90 to 0)
  DVS 0 to 90 to 0% RH (dm/dt <0.002%): 0.03%
[2]; RH 15.0, rising leg (0 to 90)
  DVS 0 to 90 to 0% RH (dm/dt <0.002%): 0.01%
[2]; RH 20.0, falling leg (90 to 0)
  DVS 0 to 90 to 0% RH (dm/dt <0.002%): 0.02%
[2]; RH 20.0, rising leg (0 to 90)
  DVS 0 to 90 to 0% RH (dm/dt <0.002%): 0.02%
[2]; RH 25.0, falling leg (90 to 0)
  DVS 0 to 90 to 0% RH (dm/dt <0.002%): 0.00%
[2]; RH 25.0, rising leg (0 to 90)
  DVS 0 to 90 to 0% RH (dm/dt <0.002%): 0.03%
[2]; RH 30.0, falling leg (90 to 0)
  DVS 0 to 90 to 0% RH (dm/dt <0.002%): 0.00%
[2]; RH 30.0, rising leg (0 to 90)
  DVS 0 to 90 to 0% RH (dm/dt <0.002%): 0.03%
[2]; RH 40.0, falling leg (90 to 0)
  DVS 0 to 90 to 0% RH (dm/dt <0.002%): 0.03%
[2]; RH 40.0, rising leg (0 to 90)
  DVS 0 to 90 to 0% RH (dm/dt <0.002%): 0.05%
[2]; RH 50.0, falling leg (90 to 0)
  DVS 0 to 90 to 0% RH (dm/dt <0.002%): 0.06%
[2]; RH 50.0, rising leg (0 to 90)
  DVS 0 to 90 to 0% RH (dm/dt <0.002%): 0.07%
[2]; RH 60.0, falling leg (90 to 0)
  DVS 0 to 90 to 0% RH (dm/dt <0.002%): 0.18%
[2]; RH 60.0, rising leg (0 to 90)
  DVS 0 to 90 to 0% RH (dm/dt <0.002%): 0.10%
[2]; RH 70.0, falling leg (90 to 0)
  DVS 0 to 90 to 0% RH (dm/dt <0.002%): 0.30%
[2]; RH 70.0, rising leg (0 to 90)
  DVS 0 to 90 to 0% RH (dm/dt <0.002%): 0.14%
[2]; RH 80.0, falling leg (90 to 0)
  DVS 0 to 90 to 0% RH (dm/dt <0.002%): 0.48%
[2]; RH 80.0, rising leg (0 to 90)
  DVS 0 to 90 to 0% RH (dm/dt <0.002%): 0.21%
[2]; RH 90.0, falling leg (90 to 0)
  DVS 0 to 90 to 0% RH (dm/dt <0.002%): 0.98%
[2]; RH 90.0, rising leg (0 to 90)
  DVS 0 to 90 to 0% RH (dm/dt <0.002%): 0.98%
[2]; at 0%, 80% and 90% RH
  form of specimens retrieved post DVS (XRPD): consistent with Form A
[2]; up to 90% RH (DVS)
  water affinity: ca. 1 % w/w
